From ChEMBL document CHEMBL1154822, “Synthesis and antiproliferative activity of 7-azaindirubin-3'-oxime, a 7-aza isostere of the natural indirubin pharmacophore” (J Nat Prod, 2009)

Key:
Type in all cases: functional
OVCAR-5 [1] = test: Cytotoxicity against human OVCAR5 cells assessed as cell growth at 1 uM after 1 to 11 days by MTT assay; settings: read-out: Activity
SK-OV-3 = test: Cytotoxicity against human SKOV3 cells assessed as cell growth at 1 uM after 1 to 11 days by MTT assay; settings: read-out: Activity
A498 [2] = test: Cytotoxicity against human A498 cells assessed as cell growth at 1 uM after 1 to 11 days by MTT assay; settings: read-out: Activity
MCF7 [3] = test: Cytotoxicity against human MCF7 cells assessed as cell growth at 1 uM after 1 to 11 days by MTT assay; settings: read-out: Activity
UACC-62 [4] = test: Cytotoxicity against human UACC62 cells assessed as cell growth at 10 uM after 1 to 11 days by MTT assay; settings: read-out: Activity
786-0 [5] = test: Cytotoxicity against human 786-0 cells assessed as cell growth at 10 uM after 1 to 11 days by MTT assay; settings: read-out: Activity
T47D = test: Cytotoxicity against human T47D cells assessed as cell growth at 1 uM after 1 to 11 days by MTT assay; settings: read-out: Activity
HL-60(TB) [6] = test: Cytotoxicity against human HL-60(TB) cells assessed as cell growth at 10 uM after 1 to 11 days by MTT assay; settings: read-out: Activity
HOP-92 = test: Cytotoxicity against human HOP92 cells assessed as cell growth at 10 uM after 1 to 11 days by MTT assay; settings: read-out: Activity
COLO 205 = test: Cytotoxicity against human COLO205 cells assessed as cell growth at 10 uM after 1 to 11 days by MTT assay; settings: read-out: Activity
MDA-MB-231 [7] = test: Cytotoxicity against human MDA-MB-231 cells assessed as cell growth at 10 uM after 1 to 11 days by MTT assay; settings: read-out: Activity
[8] = Cytotoxicity against human Hs 578T cells assessed as cell growth at 10 uM after 1 to 11 days by MTT assay; settings: read-out: Activity
MDA-MB-468 = test: Cytotoxicity against human MDA-MB-468 cells assessed as cell growth at 10 uM after 1 to 11 days by MTT assay; settings: read-out: Activity
RPMI-8226 = test: Cytotoxicity against human RPMI8226 cells assessed as cell growth at 100 uM after 1 to 11 days by MTT assay; settings: read-out: Activity
HCC 2998 = test: Cytotoxicity against human HCC2998 cells assessed as cell growth at 100 uM after 1 to 11 days by MTT assay; settings: read-out: Activity
KM12 = test: Cytotoxicity against human KM12 cells assessed as cell growth at 100 uM after 1 to 11 days by MTT assay; settings: read-out: Activity
SNB-19 = test: Cytotoxicity against human SNB19 cells assessed as cell growth at 100 uM after 1 to 11 days by MTT assay; settings: read-out: Activity
OVCAR-4 = test: Cytotoxicity against human OVCAR4 cells assessed as cell growth at 100 uM after 1 to 11 days by MTT assay; settings: read-out: Activity
786-0 [9] = test: Cytotoxicity against human 786-0 cells assessed as cell growth at 100 uM after 1 to 11 days by MTT assay; settings: read-out: Activity
A498 [10] = test: Cytotoxicity against human A498 cells assessed as cell growth at 100 uM after 1 to 11 days by MTT assay; settings: read-out: Activity
MCF7 [11] = test: Cytotoxicity against human MCF7 cells assessed as cell growth at 100 uM after 1 to 11 days by MTT assay; settings: read-out: Activity
HT-29 [12] = test: Cytotoxicity against human HT-29 cells assessed as cell growth at 1 mM after 1 to 11 days by MTT assay; settings: read-out: Activity
SF-268 = test: Cytotoxicity against human SF268 cells assessed as cell growth at 1 mM after 1 to 11 days by MTT assay; settings: read-out: Activity
NCI-H522 = test: Cytotoxicity against human NCI-H522 cells after 1 to 11 days by MTT assay
786-0 [13] = test: Cytotoxicity against human 786-0 cells assessed as cell growth at 1 mM after 1 to 11 days by MTT assay; settings: read-out: Activity
A498 [14] = test: Cytotoxicity against human A498 cells assessed as cell growth at 1 mM after 1 to 11 days by MTT assay; settings: read-out: Activity
TK-10 = test: Cytotoxicity against human TK10 cells assessed as cell growth at 1 mM after 1 to 11 days by MTT assay; settings: read-out: Activity
[15] = Cytotoxicity against human Hs 578T cells assessed as cell growth at 1 mM after 1 to 11 days by MTT assay; settings: read-out: Activity
BT-549 = test: Cytotoxicity against human BT549 cells assessed as cell growth at 1 mM after 1 to 11 days by MTT assay; settings: read-out: Activity
CCRF-CEM [16] = test: Cytotoxicity against human CCRF-CEM cells after 1 to 11 days by MTT assay
ACHN = test: Cytotoxicity against human ACHN cells after 1 to 11 days by MTT assay
MCF7 [17] = test: Cytotoxicity against human MCF7 cells after 1 to 11 days by MTT assay
MDA-MB-231 [18] = test: Cytotoxicity against human MDA-MB-231 cells after 1 to 11 days by MTT assay
MOLT-4 = test: Cytotoxicity against human MOLT4 cells assessed as cell growth at 0.1 uM after 1 to 11 days by MTT assay; settings: read-out: Activity
UACC-62 [19] = test: Cytotoxicity against human UACC62 cells assessed as cell growth at 0.1 uM after 1 to 11 days by MTT assay; settings: read-out: Activity
HCT-15 = test: Cytotoxicity against human HCT15 cells assessed as cell growth at 0.1 uM after 1 to 11 days by MTT assay; settings: read-out: Activity
OVCAR-5 [20] = test: Cytotoxicity against human OVCAR5 cells assessed as cell growth at 0.1 uM after 1 to 11 days by MTT assay; settings: read-out: Activity
SN12C = test: Cytotoxicity against human SN12C cells assessed as cell growth at 0.1 uM after 1 to 11 days by MTT assay; settings: read-out: Activity
MCF7 [21] = test: Cytotoxicity against human MCF7 cells assessed as cell growth at 0.1 uM after 1 to 11 days by MTT assay; settings: read-out: Activity
CCRF-CEM [22] = test: Cytotoxicity against human CCRF-CEM cells assessed as cell growth at 1 uM after 1 to 11 days by MTT assay; settings: read-out: Activity
HL-60(TB) [23] = test: Cytotoxicity against human HL-60(TB) cells assessed as cell growth at 1 uM after 1 to 11 days by MTT assay; settings: read-out: Activity
HCT-116 = test: Cytotoxicity against human HCT116 cells assessed as cell growth at 1 uM after 1 to 11 days by MTT assay; settings: read-out: Activity
HT-29 [24] = test: Cytotoxicity against human HT-29 cells assessed as cell growth at 1 uM after 1 to 11 days by MTT assay; settings: read-out: Activity
SK-MEL-5 = test: Cytotoxicity against human SK-MEL-5 cells assessed as cell growth at 1 uM after 1 to 11 days by MTT assay; settings: read-out: Activity
[25] = read-out: LC50 (the source's name)

Q: For O=C1Nc2ncccc2/C1=C1/Nc2ccccc2/C1=N\O, which growth at 1 µM (OVCAR-5 [1]) is on record?
A: The growth at 1 µM was 89%.

Q: What about the growth at 1 µM (SK-OV-3) of the same molecule?
A: The growth at 1 µM was 93%.

Q: And the growth at 1 µM (A498 [2])?
A: The growth at 1 µM was 85%.

Q: What about the growth at 1 µM (MCF7 [3]) of the same molecule?
A: Its growth at 1 µM is 91%.

Q: What about the growth at 10 µM (UACC-62 [4]) of the same molecule?
A: Its growth at 10 µM is 77%.

Q: And the growth at 10 µM (786-0 [5])?
A: The growth at 10 µM was 114%.

Q: What about the growth at 1 µM (T47D) of the same molecule?
A: Its growth at 1 µM is 86%.

Q: And the growth at 10 µM (HL-60(TB) [6])?
A: Its growth at 10 µM is 80%.

Q: What about the growth at 10 µM (HOP-92) of the same molecule?
A: Its growth at 10 µM is 62%.

Q: And the growth at 10 µM (COLO 205)?
A: The growth at 10 µM was 84%.

Q: What about the growth at 10 µM (MDA-MB-231 [7]) of the same molecule?
A: Its growth at 10 µM is 76%.

Q: And the growth at 10 µM [8]?
A: The growth at 10 µM was 78%.

Q: And the growth at 10 µM (MDA-MB-468)?
A: Its growth at 10 µM is 80%.

Q: What about the growth at 100 µM (RPMI-8226) of the same molecule?
A: The growth at 100 µM was 2%.

Q: What about the growth at 100 µM (HCC 2998) of the same molecule?
A: The growth at 100 µM was 39%.

Q: And the growth at 100 µM (KM12)?
A: The growth at 100 µM was 6%.

Q: And the growth at 100 µM (SNB-19)?
A: Its growth at 100 µM is 78%.

Q: What about the growth at 100 µM (OVCAR-4) of the same molecule?
A: The growth at 100 µM was 48%.

Q: What about the growth at 100 µM (786-0 [9]) of the same molecule?
A: The growth at 100 µM was 41%.

Q: And the growth at 100 µM (A498 [10])?
A: Its growth at 100 µM is 18%.

Q: What about the growth at 100 µM (MCF7 [11]) of the same molecule?
A: Its growth at 100 µM is 52%.

Q: What about the growth at 1000 µM (HT-29 [12]) of the same molecule?
A: Its growth at 1000 µM is 48%.

Q: And the growth at 1000 µM (SF-268)?
A: Its growth at 1000 µM is 54%.

Q: And the GI50 (NCI-H522)?
A: Its GI50 is over 100 µM.

Q: What about the TGI (NCI-H522) of the same molecule?
A: Its TGI is over 100 µM.

Q: And the CC50 (NCI-H522; [25])?
A: The CC50 was over 100 µM.

Q: And the growth at 1000 µM (786-0 [13])?
A: The growth at 1000 µM was 39%.

Q: And the growth at 1000 µM (A498 [14])?
A: Its growth at 1000 µM is 43%.

Q: What about the growth at 1000 µM (TK-10) of the same molecule?
A: The growth at 1000 µM was 14%.

Q: What about the growth at 1000 µM [15] of the same molecule?
A: Its growth at 1000 µM is 31%.

Q: What about the growth at 1000 µM (BT-549) of the same molecule?
A: The growth at 1000 µM was 30%.

Q: And the GI50 (CCRF-CEM [16])?
A: The GI50 was 5.07 µM.

Q: What about the TGI (CCRF-CEM [16]) of the same molecule?
A: Its TGI is over 100 µM.

Q: What about the CC50 (CCRF-CEM [16]; [25]) of the same molecule?
A: Its CC50 is over 100 µM.

Q: And the GI50 (ACHN)?
A: The GI50 was 2.68 µM.

Q: What about the TGI (ACHN) of the same molecule?
A: Its TGI is over 100 µM.

Q: What about the CC50 (ACHN; [25]) of the same molecule?
A: Its CC50 is over 100 µM.

Q: What about the GI50 (MCF7 [17]) of the same molecule?
A: Its GI50 is 15.9 µM.

Q: What about the TGI (MCF7 [17]) of the same molecule?
A: Its TGI is over 100 µM.

Q: And the CC50 (MCF7 [17]; [25])?
A: The CC50 was over 100 µM.

Q: And the GI50 (MDA-MB-231 [18])?
A: Its GI50 is 5.28 µM.

Q: And the TGI (MDA-MB-231 [18])?
A: Its TGI is over 100 µM.

Q: What about the CC50 (MDA-MB-231 [18]; [25]) of the same molecule?
A: Its CC50 is over 100 µM.

Q: What about the growth at 0.1 µM (MOLT-4) of the same molecule?
A: The growth at 0.1 µM was 92%.

Q: And the growth at 0.1 µM (UACC-62 [19])?
A: The growth at 0.1 µM was 94%.

Q: And the growth at 0.1 µM (HCT-15)?
A: The growth at 0.1 µM was 95%.

Q: What about the growth at 0.1 µM (OVCAR-5 [20]) of the same molecule?
A: Its growth at 0.1 µM is 89%.

Q: And the growth at 0.1 µM (SN12C)?
A: The growth at 0.1 µM was 93%.

Q: And the growth at 0.1 µM (MCF7 [21])?
A: Its growth at 0.1 µM is 98%.

Q: What about the growth at 1 µM (CCRF-CEM [22]) of the same molecule?
A: The growth at 1 µM was 76%.

Q: And the growth at 1 µM (HL-60(TB) [23])?
A: Its growth at 1 µM is 99%.

Q: What about the growth at 1 µM (HCT-116) of the same molecule?
A: Its growth at 1 µM is 107%.

Q: And the growth at 1 µM (HT-29 [24])?
A: The growth at 1 µM was 98%.

Q: What about the growth at 1 µM (SK-MEL-5) of the same molecule?
A: Its growth at 1 µM is 98%.
